Laboratory results from patent US10988477B2 (Merck Patent GmbH, priority 2018, dated 2021).

Each compound was assayed against GCN2 kinase (Homo sapiens, UniProt Q9P2K8) (assay: GCN2 enzyme inhibition assay (Transcreener ADP2 fluorescence polarization)). Details: Enzyme activity for compounds of Formula IV; Ki(app), 280 μM ATP, 25° C.
Chain of GCN2 kinase (Q9P2K8 whole entry): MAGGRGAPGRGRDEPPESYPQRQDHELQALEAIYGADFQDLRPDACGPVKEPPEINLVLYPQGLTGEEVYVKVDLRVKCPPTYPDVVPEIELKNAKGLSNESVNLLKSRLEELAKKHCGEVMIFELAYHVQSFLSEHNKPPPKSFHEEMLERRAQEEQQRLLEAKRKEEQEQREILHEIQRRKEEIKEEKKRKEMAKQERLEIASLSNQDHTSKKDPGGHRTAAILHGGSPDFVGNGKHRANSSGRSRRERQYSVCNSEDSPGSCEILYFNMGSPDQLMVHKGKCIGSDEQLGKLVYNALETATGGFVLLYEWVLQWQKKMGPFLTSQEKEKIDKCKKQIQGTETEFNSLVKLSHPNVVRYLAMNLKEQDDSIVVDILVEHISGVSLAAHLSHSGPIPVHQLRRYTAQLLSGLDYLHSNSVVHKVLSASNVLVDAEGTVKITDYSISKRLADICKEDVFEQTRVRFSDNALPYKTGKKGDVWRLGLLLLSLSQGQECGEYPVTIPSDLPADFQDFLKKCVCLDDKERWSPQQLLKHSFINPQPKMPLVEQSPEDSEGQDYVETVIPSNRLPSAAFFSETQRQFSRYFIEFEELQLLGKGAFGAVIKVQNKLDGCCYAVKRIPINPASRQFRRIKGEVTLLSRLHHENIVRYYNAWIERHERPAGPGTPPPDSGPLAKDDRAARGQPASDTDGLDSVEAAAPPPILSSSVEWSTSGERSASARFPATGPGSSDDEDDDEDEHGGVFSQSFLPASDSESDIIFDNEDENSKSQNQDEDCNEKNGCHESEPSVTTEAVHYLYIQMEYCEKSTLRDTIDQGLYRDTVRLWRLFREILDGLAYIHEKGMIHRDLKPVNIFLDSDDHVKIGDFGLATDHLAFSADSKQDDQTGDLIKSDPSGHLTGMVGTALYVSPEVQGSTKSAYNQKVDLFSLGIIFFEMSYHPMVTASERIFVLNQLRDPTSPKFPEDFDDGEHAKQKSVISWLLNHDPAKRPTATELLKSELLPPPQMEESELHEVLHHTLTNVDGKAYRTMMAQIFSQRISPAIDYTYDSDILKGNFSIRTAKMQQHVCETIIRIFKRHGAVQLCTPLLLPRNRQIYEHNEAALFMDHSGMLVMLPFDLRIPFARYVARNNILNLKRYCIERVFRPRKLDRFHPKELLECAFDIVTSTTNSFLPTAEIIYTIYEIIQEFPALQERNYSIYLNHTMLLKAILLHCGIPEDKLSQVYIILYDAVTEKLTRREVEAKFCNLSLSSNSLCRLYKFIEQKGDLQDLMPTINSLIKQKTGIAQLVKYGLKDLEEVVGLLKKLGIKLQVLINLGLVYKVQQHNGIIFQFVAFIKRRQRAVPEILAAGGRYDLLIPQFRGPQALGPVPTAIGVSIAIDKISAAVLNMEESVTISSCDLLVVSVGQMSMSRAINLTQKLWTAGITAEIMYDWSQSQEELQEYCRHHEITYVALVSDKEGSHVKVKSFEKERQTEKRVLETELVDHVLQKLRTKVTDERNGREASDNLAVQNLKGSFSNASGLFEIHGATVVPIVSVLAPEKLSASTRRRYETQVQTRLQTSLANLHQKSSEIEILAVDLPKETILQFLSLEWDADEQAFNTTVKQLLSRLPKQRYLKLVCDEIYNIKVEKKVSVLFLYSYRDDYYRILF
Type: biochemical
How it was run: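 4 nM GCN2 + 200 μM (RS)7 + compound (0–8 μM), 10 min preinc.; start with ATP (280 μM final); 1 h, 25 °C; pH 7.5 Tris/NaCl/MgCl2/DTT; ADP FP readout; IC50, Ki(app) via tight-binding fit.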
CC1C(c2cn[nH]c2)OCCN1c1nccc(-c2cnc3cnc(C(F)(F)F)cn23)n1 (stereo not shown) [IV-417, 3-Methyl-2-(1H-pyrazol-4-yl)-4-(4-(6-(trifluoromethyl)imidazo[1,2-a]pyrazin-3-yl)pyrimidin-2-yl)morpholine] was tested, and the Ki was less than 10 nM. NC(=O)c1cn2c(-c3nccc(N4CC5(CCOC5)C4)n3)cnc2cn1 [IV-270, 3-(4-(6-Oxa-2-azaspiro[3.4]octan-2-yl)pyrimidin-2-yl)imidazo[1,2-a]pyrazine-6-carboxamide] showed a Ki of 100 to 1000 nM. With CC1CCCN(c2ccnc(-c3cnc4cnc(C(N)=O)cn34)n2)C1 (stereo not shown) [IV-187, 3-(4-(3-Methylpiperidin-1-yl)pyrimidin-2-yl)imidazo[1,2-a]pyrazine-6-carboxamide] the Ki was 10 to 100 nM. In the case of CC(=O)N1CCN(c2ccnc(-c3cnc4cnc(-c5cn(C)nc5C)cn34)n2)CC1 [IV-307, 1-(4-(2-(6-(1,3-Dimethyl-1H-pyrazol-4-yl)imidazo[1,2-a]pyrazin-3-yl)pyrimidin-4-yl)piperazin-1-yl)ethan-1-one], the Ki is reported as 100 to 1000 nM. NC(=O)c1cn2c(-c3nccc(N4CCC(=O)N5CCCC5C4)n3)cnc2cn1 (stereo not shown) [IV-262, 3-(4-(5-Oxohexahydro-1H-pyrrolo[1,2-a][1,4]diazepin-2(3H)-yl)pyrimidin-2-yl)imidazo[1,2-a]pyrazine-6-carboxamide] showed a Ki of 100 to 1000 nM. Work on O=C(N[C@H]1CCCN(c2ccnc(-c3cnc4cnc(C(F)(F)F)cn34)n2)C1)c1c[nH]cn1 [IV-751] yielded a Ki greater than 1000 nM. OC1CCN(C2CCN(c3ccnc(-c4cnc5cnc(C(F)(F)F)cn45)n3)C2)CC1 (stereo not shown) [IV-645, 1-(1-(2-(6-(Trifluoromethyl)imidazo[1,2-a]pyrazin-3-yl)pyrimidin-4-yl)pyrrolidin-3-yl)piperidin-4-ol] showed a Ki of 100 to 1000 nM. CC1CN(c2nc(-c3cnc4cnc(C(F)(F)F)cn34)ncc2F)C(C)C(c2cn[nH]c2)N1 (single isomer, unassigned) [IV-324, 3-(4-(2,5-Dimethyl-3-(1H-pyrazol-4-yl)piperazin-1-yl)-5-fluoropyrimidin-2-yl)-6-(trifluoromethyl)imidazo[1,2-a]pyrazine] showed a Ki of 10 to 100 nM. CC1CN(c2nccc(-c3cnc4cnc(Br)cn34)n2)C(C)C(c2cn[nH]c2)N1 (stereo not shown) [IV-383, 6-Bromo-3-(2-(2,5-dimethyl-3-(1H-pyrazol-4-yl)piperazin-1-yl)pyrimidin-4-yl)imidazo[1,2-a]pyrazine] gave a Ki of 10 to 100 nM. In the case of O=C(Nc1ccncc1)[C@H]1CCCN(c2ccnc(-c3cnc4cnc(C(F)(F)F)cn34)n2)C1 [IV-720], the Ki is reported as 100 to 1000 nM. In the case of O=C(N[C@H]1CCCN(c2ccnc(-c3cnc4cnc(C(F)(F)F)cn34)n2)C1)c1ccn(C2CC2)n1 [IV-742], the Ki is reported as greater than 1000 nM. Cn1nccc1C1CCCN(c2ccnc(-c3cnc4cnc(C(F)(F)F)cn34)n2)C1 (stereo not shown) [IV-655, 3-(4-(3-(1-Methyl-1H-pyrazol-5-yl)piperidin-1-yl)pyrimidin-2-yl)-6-(trifluoromethyl)imidazo[1,2-a]pyrazine] was tested, and the Ki was 100 to 1000 nM. In the case of CS(=O)(=O)CC1CCCN(c2ccnc(-c3cnc4cnc(C(F)(F)F)cn34)n2)C1 (stereo not shown) [IV-482, 3-(4-(3-((Methylsulfonyl)methyl)piperidin-1-yl)pyrimidin-2-yl)-6-(trifluoromethyl)imidazo[1,2-a]pyrazine], the Ki is reported as 100 to 1000 nM. In the case of O=C(N[C@H]1CCCN(c2ccnc(-c3cnc4cnc(C(F)(F)F)cn34)n2)C1)c1ccc(F)cc1F [IV-744], the Ki is reported as greater than 1000 nM. For CC1C(c2cn[nH]c2)OCCN1c1ccnc(-c2cnc3cnc(Cl)cn23)n1 (single isomer, unassigned) [IV-316, 4-(2-(6-Chloroimidazo[1,2-a]pyrazin-3-yl)pyrimidin-4-yl)-3-methyl-2-(1H-pyrazol-4-yl)morpholine], the Ki was 100 to 1000 nM. N#CC1CCN(c2ccnc(-c3cnc4cnc(C(F)(F)F)cn34)n2)CC1 [IV-513, 1-(2-(6-(Trifluoromethyl)imidazo[1,2-a]pyrazin-3-yl)pyrimidin-4-yl)piperidine-4-carbonitrile] was tested, and the Ki was 100 to 1000 nM. With OCC1CCCCN(c2ccnc(-c3cnc4cnc(C(F)(F)F)cn34)n2)C1 (stereo not shown) [IV-445, (1-(2-(6-(Trifluoromethyl)imidazo[1,2-a]pyrazin-3-yl)pyrimidin-4-yl)azepan-3-yl)methanol] the Ki was 100 to 1000 nM. Work on FC(F)(F)c1cn2c(-c3nccc(N4CCC(n5ccnc5)C4)n3)cnc2cn1 (stereo not shown) [IV-564, 3-(4-(3-(1H-Imidazol-1-yl)pyrrolidin-1-yl)pyrimidin-2-yl)-6-(trifluoromethyl)imidazo[1,2-a]pyrazine] yielded a Ki of 100 to 1000 nM. Compound FC(F)(F)c1cn2c(-c3ccnc(N4CCCC(c5c[nH]cn5)C4)n3)cnc2cn1 (stereo not shown) [IV-484, 3-(2-(3-(1H-Imidazol-4-yl)piperidin-1-yl)pyrimidin-4-yl)-6-(trifluoromethyl)imidazo[1,2-a]pyrazine] has a Ki of 10 to 100 nM. Work on CC1CCN(c2ccnc(-c3cnc4cnc(C(F)(F)F)cn34)n2)CC1n1ccnc1 (stereo not shown) [IV-320, 3-(4-(3-(1H-Imidazol-1-yl)-4-methylpiperidin-1-yl)pyrimidin-2-yl)-6-(trifluoromethyl)imidazo[1,2-a]pyrazine] yielded a Ki of 100 to 1000 nM. NCC1CN(c2ccnc(-c3cnc4cnc(C(F)(F)F)cn34)n2)CCO1 (stereo not shown) [IV-489] showed a Ki of 100 to 1000 nM. With NC(=O)c1cn2c(-c3nccc(N4CCN5C(=O)CCCC5C4)n3)cnc2cn1 (single isomer, unassigned) [IV-273, 3-(4-(6-Oxooctahydro-2H-pyrido[1,2-a]pyrazin-2-yl)pyrimidin-2-yl)imidazo[1,2-a]pyrazine-6-carboxamide] the Ki was 100 to 1000 nM. In the case of Cc1nc(C2CN(c3ccnc(-c4cnc5cnc(C(F)(F)F)cn45)n3)CCO2)n[nH]1 (stereo not shown) [IV-661, 2-(5-Methyl-1H-1,2,4-triazol-3-yl)-4-(2-(6-(trifluoromethyl)imidazo[1,2-a]pyrazin-3-yl)pyrimidin-4-yl)morpholine], the Ki is reported as 100 to 1000 nM. Work on CC(C)(O)CN1CCN(c2ccnc(-c3cnc4cnc(C(F)(F)F)cn34)n2)CC1 [IV-619, 2-Methyl-1-(4-(2-(6-(trifluoromethyl)imidazo[1,2-a]pyrazin-3-yl)pyrimidin-4-yl)piperazin-1-yl)propan-2-ol] yielded a Ki of 100 to 1000 nM.

Same assay, conditions: compounds of Formula II; 280 μM ATP, 4 nM GCN2 kinase
In the case of CCC(NS(C)(=O)=O)C1CN(c2cc(-c3cnc4ccc(C(F)F)nn34)ncn2)CCO1 (stereo not shown) [II-572, N-(1-(4-(6-(6-(Difluoromethyl)imidazo[1,2-b]pyridazin-3-yl)pyrimidin-4-yl)morpholin-2-yl)propyl)methanesulfonamide], the Ki is reported as 10 to 1000 nM. With FC(F)(F)c1ccc2ncc(-c3cc(-c4cnn(C5CCOCC5)c4)ncn3)n2n1 [II-708, 3-[6-(1-Tetrahydropyran-4-ylpyrazol-4-yl)pyrimidin-4-yl]-6-(trifluoromethyl)imidazo[1,2-b]pyridazine] the Ki was greater than 1000 nM. In the case of CS(=N)(=O)Cc1cccc(-c2cc(-c3cnc4ccc(C(F)F)nn34)ncn2)c1 (stereo not shown) [II-598, (3-(6-(6-(Difluoromethyl)imidazo[1,2-b]pyridazin-3-yl)pyrimidin-4-yl)benzyl)(imino)(methyl)-λ^6-sulfanone], the Ki is reported as 10 to 1000 nM. For N#CCC1CN(c2cc(-c3cnc4ccc(C(F)F)nn34)ncn2)CCO1 (single isomer, unassigned) [II-565, 2-(4-(6-(6-(Difluoromethyl)imidazo[1,2-b]pyridazin-3-yl)pyrimidin-4-yl)morpholin-2-yl)acetonitrile], the Ki was 10 to 1000 nM. CC1CN(c2cc(-c3cnc4ccc(C(F)F)nn34)ncn2)C(C)C(c2cn[nH]c2)N1 (single isomer, unassigned) [II-653, 6-(Difluoromethyl)-3-(6-(2,5-dimethyl-3-(1H-pyrazol-4-yl)piperazin-1-yl)pyrimidin-4-yl)imidazo[1,2-b]pyridazine] was tested, and the Ki was 10 to 1000 nM. Compound CS(=N)(=O)NC[C@@H]1CN(c2cc(-c3cnc4ccc(C(F)F)nn34)ncn2)CCO1 (stereo partly drawn) [II-23, N—(((S)-4-(6-(6-(Difluoromethyl)imidazo[1,2-b]pyridazin-3-yl)pyrimidin-4-yl)morpholin-2-yl)methyl)methanesulfonimidamide] has a Ki of 10 to 1000 nM. CS(=N)(=O)CC1CCCN(c2cc(-c3cnc4ccc(C(F)F)nn34)ncn2)C1 (single isomer, unassigned) [II-639, ((1-(6-(6-(Difluoromethyl)imidazo[1,2-b]pyridazin-3-yl)pyrimidin-4-yl)piperidin-3-yl)methyl)(imino)(methyl)-λ^6-sulfanone] gave a Ki of 10 to 1000 nM. Compound CC1CC(N=S2(=O)CCCC2)CN(c2cc(-c3cnc4ccc(C(F)F)nn34)ncn2)C1 (stereo not shown) [II-649, 1-((1-(6-(6-(Difluoromethyl)imidazo[1,2-b]pyridazin-3-yl)pyrimidin-4-yl)-5-methylpiperidin-3-yl)imino)tetrahydro-1H-1-λ^6-thiophene 1-oxide] has a Ki of 10 to 1000 nM. Work on N#CC1CCCN(c2cc(-c3cnc4ccc(C(F)(F)F)nn34)ncn2)C1 (stereo not shown) [II-534, 1-(6-(6-(Trifluoromethyl)imidazo[1,2-b]pyridazin-3-yl)pyrimidin-4-yl)piperidine-3-carbonitrile] yielded a Ki of 10 to 1000 nM. O=C(O)[C@@H]1CCCN(c2cc(-c3cnc4ccc(C(F)F)nn34)ncn2)C1 [II-508, (R)-1-(6-(6-(Difluoromethyl)imidazo[1,2-b]pyridazin-3-yl)pyrimidin-4-yl)piperidine-3-carboxylic acid] showed a Ki of 10 to 1000 nM. CC1C(CNS(C)(=O)=O)C(C)(O)C(C)CN1c1cc(-c2cnc3ccc(C(F)F)nn23)ncn1 (stereo not shown) [II-617, N-((1-(6-(6-(Difluoromethyl)imidazo[1,2-b]pyridazin-3-yl)pyrimidin-4-yl)-4-hydroxy-2,4,5-trimethylpiperidin-3-yl)methyl)methanesulfonamide] was tested, and the Ki was 10 to 1000 nM. With C[C@@H]1C[C@H](CS(C)(=N)=O)[C@H](C)N(c2cc(-c3cnc4ccc(C(F)F)nn34)ncn2)C1 (stereo partly drawn) [II-606, (((2S,3S,5R)-1-(6-(6-(Difluoromethyl)imidazo[1,2-b]pyridazin-3-yl)pyrimidin-4-yl)-2,5-dimethylpiperidin-3-yl)methyl)(imino)(methyl)-λ^6-sulfanone] the Ki was less than 10 nM. Compound CC1CCC(NS(C)(=O)=O)CN1c1cc(-c2cnc3ccc(C(F)F)nn23)ncn1 (stereo not shown) [II-551, N-(1-(6-(6-(Difluoromethyl)imidazo[1,2-b]pyridazin-3-yl)pyrimidin-4-yl)-6-methylpiperidin-3-yl)methanesulfonamide] has a Ki of 10 to 1000 nM.
